Data from patent US20220324815A1, “2-PHENOXY-PYRIMIDINE DERIVATIVES AS HERBICIDAL COMPOUNDS” (SYNGENTA CROP PROTECTION AG, priority 2019, published 2022).

Experiments:
Format in all cases: in vivo
Conditions in all cases: 250 g/ha unless otherwise stated, evaluated after 13 days, five-point scale
[1] = system: Ipomoea hederacea (IPOHE); assay: Test 1 glasshouse herbicide test, post-emergence application (Table B1)
Protocol: (§1) Seeds of a variety of test species are sown in standard soil in pots (Lolium perenne (LOLPE), Solanum nigrum (SOLNI), Amaranthus retoflexus (AMARE), Setaria faberi (SETFA), Echinochloa crus-galli (ECHCG) and Ipomoea hederacea (IPOHE)). After cultivation for one day (pre-emergence) or after 8 days cultivation (post-emergence) under controlled conditions in a glasshouse (at 24/16° C., day/night; 14 hours light; 65% humidity), the plants are sprayed with an aqueous spray solution derived from the formulation of the technical active ingredient in acetone/water (50:50) solution containing 0.5% Tween 20 (polyoxyethelyene sorbitan monolaurate, CAS RN 9005-64-5). Compounds are applied at 250 g/ha unless otherwise stated. The test plants are then grown in a glasshouse under controlled conditions in a glasshouse (at 24/16° C., day/night; 14 hours light; 65% humidity) and watered twice daily. After 13 days for pre and post-emergence, the test is evaluated for the percentage damage caused to the plant. The biological activities (% phytotoxicity) are shown in Tables B1 and B2 below using a five-point scale (5=81 to 100%; 4=61 to 80%; 3=41 to 60%; 2=21 to 40%; 1=0 to 20%).

[2] = system: Amaranthus retoflexus (AMARE); assay: as above
Protocol: as §1

[3] = system: Echinochloa crus-galli (ECHCG); assay: as above
Protocol: as §1

[4] = system: Setaria faberi (SETFA); assay: as above
Protocol: as §1

[5] = system: Ipomoea hederacea (IPOHE); assay: Test 1 glasshouse herbicide test, pre-emergence application (Table B2)
Protocol: as §1

[6] = system: Amaranthus retoflexus (AMARE); assay: as above
Protocol: as §1

[7] = system: Echinochloa crus-galli (ECHCG); assay: as above
Protocol: as §1

[8] = system: Setaria faberi (SETFA); assay: as above
Protocol: as §1

| SMILES | % phytotoxicity IPOHE, post-emergence application [1] | % phytotoxicity AMARE, post-emergence application [2] | % phytotoxicity ECHCG, post-emergence application [3] | % phytotoxicity SETFA, post-emergence application [4] | % phytotoxicity IPOHE, pre-emergence application [5] | % phytotoxicity AMARE, pre-emergence application [6] | % phytotoxicity ECHCG, pre-emergence application [7] | % phytotoxicity SETFA, pre-emergence application [8] |
| --- | --- | --- | --- | --- | --- | --- | --- | --- |
| COCCS(=O)(=O)c1ccccc1Oc1ncc(Cl)cn1 [Compound A42] | 1 (1=0 to 20%) | 2 (2=21 to 40%) | 1 (1=0 to 20%) | 1 (1=0 to 20%) | 1 (1=0 to 20%) | 1 (1=0 to 20%) | 1 (1=0 to 20%) | 1 (1=0 to 20%) |
| CCCCCS(=O)(=O)c1ccccc1Oc1ncc(Cl)cn1 [Compound A43] | 1 (1=0 to 20%) | 3 (3=41 to 60%) | 2 (2=21 to 40%) | 2 (2=21 to 40%) | 1 (1=0 to 20%) | 5 (5=81 to 100%) | 4 (4=61 to 80%) | 4 (4=61 to 80%) |
| CCCCCSc1ccccc1Oc1ncc(Cl)cn1 [Compound A44] | 1 (1=0 to 20%) | 5 (5=81 to 100%) | 4 (4=61 to 80%) | 2 (2=21 to 40%) | 1 (1=0 to 20%) | 5 (5=81 to 100%) | 5 (5=81 to 100%) | 5 (5=81 to 100%) |
| C#CCSc1ccccc1Oc1ncc(Cl)cn1 [Compound A45] | 1 (1=0 to 20%) | 3 (3=41 to 60%) | 3 (3=41 to 60%) | 2 (2=21 to 40%) | 1 (1=0 to 20%) | 3 (3=41 to 60%) | 3 (3=41 to 60%) | 3 (3=41 to 60%) |
| C#CCS(=O)(=O)c1ccccc1Oc1ncc(Cl)cn1 [Compound A46] | 1 (1=0 to 20%) | 1 (1=0 to 20%) | 1 (1=0 to 20%) | 1 (1=0 to 20%) | 1 (1=0 to 20%) | 1 (1=0 to 20%) | 1 (1=0 to 20%) | 1 (1=0 to 20%) |
| C=CCS(=O)(=O)c1ccccc1Oc1ncc(Cl)cn1 [Compound A48] | 1 (1=0 to 20%) | 2 (2=21 to 40%) | 1 (1=0 to 20%) | 1 (1=0 to 20%) | 1 (1=0 to 20%) | 1 (1=0 to 20%) | 1 (1=0 to 20%) | 1 (1=0 to 20%) |
| CCCSc1ccccc1Oc1ncc(Cl)cn1 [Compound A49] | 4 (4=61 to 80%) | 4 (4=61 to 80%) | 4 (4=61 to 80%) | 4 (4=61 to 80%) | 3 (3=41 to 60%) | 5 (5=81 to 100%) | 5 (5=81 to 100%) | 5 (5=81 to 100%) |
| CCCS(=O)(=O)c1ccccc1Oc1ncc(Cl)cn1 [Compound A50] | 2 (2=21 to 40%) | 4 (4=61 to 80%) | 1 (1=0 to 20%) | 1 (1=0 to 20%) | 2 (2=21 to 40%) | 5 (5=81 to 100%) | 4 (4=61 to 80%) | 5 (5=81 to 100%) |
